In US8258138B2, “Potassium channel blockers” (Xention Limited, priority 2008, dated 2012):

Molecular target: T1, human Kv1.3 (Homo sapiens, UniProt P22001)
T1 construct: expressed in transfected cells; host or cells: stably transfected cells grown in medium for CHO cells
Test: Kv1.3 Autopatch electrophysiology (whole cell patch-clamp, inhibition of charge movement)
Assay type: cell-based
Settings: compound at 1 μM; cells stably transfected with human Kv1.3; room temperature; total charge during step to +30 mV relative to control
Procedure: Kv1.3 Autopatch Electrophysiology Method
Compounds were tested on these cells using the AutoPatch technology in whole cell mode.
The external bathing solution contained (in mM): 150 NaCl, 10 KCl, 1 MgCl2, 3 CaCl2, 10 HEPES, pH 7.4 with NaOH. Patch pipettes were filled with an electrode solution of composition (in mM): 100 K-Gluconate, 20 KCl, 1 MgCl2, 1 CaCl2, 10 HEPES, 11 EGTA, 5 ATP-Na2, 2 Glutathione pH 7.2 with KOH.
Compounds were dissolved in DMSO (100%) and made up in the external bather at a concentration of 1 μM immediately prior to use. All experiments were conducted at room temperature.
A cell suspension (10 ml), with a density of 6×10^6 cells, was aliquoted into a 15 ml centrifuge tube and stored at 4° C. before use. Prior to use a tube was taken and centrifuged at 1000 rpm for 4 mins at room temperature. The supernatant was then discarded, leaving a cell pellet at the bottom of the tube. The pellet was then resuspended using 1 ml of cold (4° C.), filtered (0.22 μm), 0.05% BSA/bather solution (0.05 g BSA/100 ml bather). The bottom of the tube was manually agitated followed by gentle tituration. The cell suspension was then placed in the AutoPatch™ temperature controlled cell-hotel at 14° C. and regularly titurated.
A length of Teflon capillary tubing was dipped into the cell suspension solution, and a column of fluid was taken up by negative pressure. The column of fluid was in electrically connectivity with a Ag/AgCl reference electrode. Borosilicate glass patch pipettes (from 1.5 mm OD, thin-walled filamented, GC150-TF capillary glass, Harvard) were pulled using a DMZ pipette puller (Zeitz Instruments), and were back-filled using the internal pipette solution, being careful that no bubbles remained at the tip or in the body of the pipette. Patch pipettes typically had resistances of 2.5-3.5 MΩ. Once filled, the pipette tip and a proportion of the shaft (˜15 mm) were dipped into Sigmacote (Sigma). The recording pipettes were placed in a multiwell array and mounted on the AutoPatch™ machine. Automated patch-clamping and drug-application was initiated by the operator, but thereafter AutoPatch.exe continued the experiment providing that pre-set conditions and criteria were satisfied.
Whole cell patch-clamp recordings were made using the AutoPatch™ rig, which incorporated an EPC9 or EPC10 amplifier (HEKA, Germany) under control of Pulse software (v8.54 or v8.76, HEKA, Germany), a cell applicator, automated drug application system (DAS), valve controller (VF1) and a suction device all at room temperature. This equipment was completely under the control of AutoPatch.exe and operator intervention was only made when there was a requirement to refill the bather reservoirs or to prevent the loss of a cell due to a technical error.
Cells were continuously perfused with external solution at a flow rate of ˜2 ml/minute.
Electrophysiology voltage-step protocols and analysis of data was performed as follows. Data were sampled at 5 kHz, and filtered with a −3 dB bandwidth of 2.5 kHz. Cells were held at a voltage of −80 mV. Currents were evoked by a voltage step to +30 mV for 500 ms in duration applied every 15 s. Online analysis of the hKv1.3 current during the application of compounds was performed by the Pulse (v8.54 or v8.76, HEKA, Germany), Excel (Microsoft, USA) and AutoPatch™ software, with the total charge measured during the whole of voltage step. Inhibition of charge movement in the presence of drug was calculated relative to control.

T1 sequence (P22001 whole entry): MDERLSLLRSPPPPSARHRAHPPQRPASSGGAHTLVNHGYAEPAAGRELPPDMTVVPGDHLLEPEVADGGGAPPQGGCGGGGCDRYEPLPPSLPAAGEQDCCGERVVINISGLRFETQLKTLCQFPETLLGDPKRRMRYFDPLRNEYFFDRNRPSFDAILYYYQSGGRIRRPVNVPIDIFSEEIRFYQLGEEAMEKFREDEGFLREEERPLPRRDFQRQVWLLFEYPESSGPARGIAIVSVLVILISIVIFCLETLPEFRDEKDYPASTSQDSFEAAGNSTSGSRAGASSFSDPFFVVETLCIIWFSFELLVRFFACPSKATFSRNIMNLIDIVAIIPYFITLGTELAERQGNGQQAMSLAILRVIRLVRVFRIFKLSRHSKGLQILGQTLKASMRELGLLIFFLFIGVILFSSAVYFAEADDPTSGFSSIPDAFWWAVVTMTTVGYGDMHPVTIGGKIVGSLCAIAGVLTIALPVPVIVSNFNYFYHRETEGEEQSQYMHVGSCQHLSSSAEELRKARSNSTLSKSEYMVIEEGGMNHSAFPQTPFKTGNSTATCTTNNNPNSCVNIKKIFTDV

Going from CN(C)S(=O)(=O)N(Cc1ccccc1)c1ccc(C(=O)N2CCC(O)(c3ccccc3)CC2)cc1 [Example 71, N-Benzyl-N′N′-dimethyl-N-[4-(4-hydroxy-4-phenyl-piperidine-1-carbonyl)-phenyl]-sulfamide] to CN(C)S(=O)(=O)N(Cc1ccccc1)c1ccc(C(=O)N2CCC(Oc3ccccc3)CC2)cc1 [Example 72, N-Benzyl-N′N′-dimethyl-N-[4-(4-phenoxy-piperidine-1-carbonyl)-phenyl]-sulfamide], the hKv1.3 % inh. rises from 27% to 68%.

CC(C)c1noc(C2CCCN(C(=O)c3ccc(N(Cc4ccccc4)S(=O)(=O)N(C)C)cc3)C2)n1 (stereo not shown) [Example 69, N-Benzyl-N′N′-dimethyl-N-{4-[3-(3-isopropyl-[1,2,4]oxadiazol-5-yl)-piperidine-1-carbonyl]-phenyl}-sulfamide] was tested, and the hKv1.3 % inh. was 31%.

Same assay, conditions: compound at 1 μM; cells stably transfected with human Kv1.3; room temperature; total charge during step to +30 mV relative to control; read-out: hKv1.3 % inh.

Going from CC1CN(C(=O)c2ccc(N(Cc3ccccc3)S(=O)(=O)c3ccccc3)cc2)CC(C)O1 (stereo not shown) [Example 56, N-Benzyl-N-[4-(2,6-dimethyl-morpholine-4-carbonyl)-phenyl]-benzenesulfonamide] to CN1CCN(C(=O)c2ccc(N(Cc3ccccc3)S(=O)(=O)c3ccnn3C)cc2)CC1c1ccccc1 (stereo not shown) [Example 91, 2-Methyl-2H-pyrazole-3-sulfonic acid benzyl-[4-(4-methyl-3-phenyl-piperazine-1-carbonyl)-phenyl]-amide], the inhibition at 1 µM rises from 42% to 81%.

Compared with Cn1cnc(S(=O)(=O)N(Cc2ccc(Cl)cc2)c2ccc(C(=O)N3CCC(F)(F)C3)cc2)c1 [Example 100, 1-Methyl-1H-imidazole-4-sulfonic acid (4-chloro-benzyl)-[4-(3,3-difluoro-pyrrolidine-1-carbonyl)-phenyl]-amide], Cn1cnc(S(=O)(=O)N(Cc2ccc(Cl)cc2)c2ccc(C(=O)N3CCCCC3)cc2)c1 [Example 67, 1-Methyl-1H-imidazole-4-sulfonic acid (4-chloro-benzyl)-[4-(piperidine-1-carbonyl)-phenyl]-amide] is lower in inhibition at 1 µM: 52% for the first, 43% for the second.

Compared with Cn1cnc(S(=O)(=O)N(Cc2ccccc2)c2ccc(C(=O)N3CCN(c4ccccc4F)CC3)cc2)c1 [Example 75, 1-Methyl-1H-imidazole-4-sulfonic acid benzyl-{4-[4-(2-fluoro-phenyl)-piperazine-1-carbonyl]-phenyl}-amide], Cn1cnc(S(=O)(=O)N(Cc2ccccc2)c2ccc(C(=O)N3CCN(c4nccs4)CC3)cc2)c1 [Example 77, 1-Methyl-1H-imidazole-4-sulfonic acid benzyl-[4-(4-thiazol-2-yl-piperazine-1-carbonyl)-phenyl]-amide] is lower in inhibition at 1 µM: 64% for the first, 42% for the second.

Going from Cn1cnc(S(=O)(=O)N(Cc2ccccc2)c2ccc(C(=O)N3CCC(F)(F)CC3)cc2)c1 [Example 79, 1-Methyl-1H-imidazole-4-sulfonic acid benzyl-[4-(4,4-difluoro-piperidine-1-carbonyl)-phenyl]-amide] to CC1CCCN(C(=O)c2ccc(N(Cc3ccccc3)S(=O)(=O)c3cn(C)cn3)cc2)C1 (stereo not shown) [Example 74, 1-Methyl-1H-imidazole-4-sulfonic acid benzyl-[4-(3-methyl-piperidine-1-carbonyl)-phenyl]-amide], the inhibition at 1 µM falls from 60% to 51%.

Compared with Cc1noc(C2CCCN(C(=O)c3ccc(N(Cc4ccccc4)S(=O)(=O)c4cn(C)cn4)cc3)C2)n1 (stereo not shown) [Example 65, 1-Methyl-1H-imidazole-4-sulfonic acid benzyl-{4-[3-(3-methyl-[1,2,4]oxadiazol-5-yl)-piperidine-1-carbonyl]-phenyl}-amide], Cn1cnc(S(=O)(=O)N(Cc2ccccc2)c2ccc(C(=O)N3CCCC(F)C3)cc2)c1 (stereo not shown) [Example 80, 1-Methyl-1H-imidazole-4-sulfonic acid benzyl-[4-(3-fluoro-piperidine-1-carbonyl)-phenyl]-amide] is lower in inhibition at 1 µM: 57% for the first, 30% for the second.

Going from Cn1cnc(S(=O)(=O)N(Cc2ccccc2)c2ccc(C(=O)N3CCC(c4ccc(F)cc4)C3)cc2)c1 (stereo not shown) [Example 82, 1-Methyl-1H-imidazole-4-sulfonic acid benzyl-{4-[3-(4-fluoro-phenyl)-pyrrolidine-1-carbonyl]-phenyl}-amide] to Cn1ccc(S(=O)(=O)N(Cc2ccccc2)c2ccc(C(=O)N3CCOC(c4ccccc4)C3)cc2)n1 (stereo not shown) [Example 84, 1-Methyl-1H-pyrazole-3-sulfonic acid benzyl-[4-(2-phenyl-morpholine-4-carbonyl)-phenyl]-amide], the inhibition at 1 µM rises from 78% to 89%.

Going from O=C(c1ccc(N(Cc2ccc(C(F)(F)F)cc2)S(=O)(=O)c2ccccc2)cc1)N1CCN(c2ccccc2)CC1 [Example 36, N-[4-(4-Phenyl-piperazine-1-carbonyl)-phenyl]-N-(4-trifluoromethyl-benzyl)-benzenesulfonamide] to N#Cc1ccc(S(=O)(=O)N(Cc2ccccc2)c2ccc(C(=O)N3CCN(c4ccccc4)CC3)cc2)cc1 [Example 22, N-Benzyl-4-cyano-N-[4-(4-phenyl-piperazine-1-carbonyl)-phenyl]-benzenesulfonamide], the inhibition at 1 µM falls from 50% to 39%.

First: O=C(c1ccc(N(Cc2ccccc2)S(=O)(=O)c2ccco2)cc1)N1CCN(c2ccccc2)CC1 [Example 41, Furan-2-sulfonic acid benzyl-[4-(4-phenyl-piperazine-1-carbonyl)-phenyl]-amide]
Second: Cc1cccc(S(=O)(=O)N(Cc2ccccc2)c2ccc(C(=O)N3CCN(c4ccccc4)CC3)cc2)c1 [Example 27, N-Benzyl-3-methyl-N-[4-(4-phenyl-piperazine-1-carbonyl)-phenyl]-benzenesulfonamide]
The inhibition at 1 µM of the first is higher: 81% for the first, 55% for the second.

First: O=C(c1ccc(N(Cc2ccccc2)S(=O)(=O)c2ccc3ccccc3c2)cc1)N1CCN(c2ccccc2)CC1 [Example 13, Naphthalene-2-sulfonic acid benzyl-[4-(4-phenyl-piperazine-1-carbonyl)-phenyl]-amide]
Second: N#Cc1ccccc1CN(c1ccc(C(=O)N2CCN(c3ccccc3)CC2)cc1)S(=O)(=O)c1ccccc1 [Example 38, N-(2-Cyano-benzyl)-N-[4-(4-phenyl-piperazine-1-carbonyl)-phenyl]-benzenesulfonamide]
The inhibition at 1 µM of the first is higher: 51% for the first, 50% for the second.

Compared with Cn1ccc(S(=O)(=O)N(Cc2ccccc2)c2ccc(C(=O)N3CCNC(c4ccccc4)C3)cc2)n1 (stereo not shown) [Example 88, 1-Methyl-1H-pyrazole-3-sulfonic acid benzyl-[4-(3-phenyl-piperazine-1-carbonyl)-phenyl]-amide], Cn1ccc(S(=O)(=O)N(Cc2ccc(Cl)cc2)c2ccc(C(=O)N3CCCCC3)cc2)n1 [Example 86, 1-Methyl-1H-pyrazole-3-sulfonic acid (4-chloro-benzyl)-[4-(piperidine-1-carbonyl)-phenyl]-amide] is higher in inhibition at 1 µM: 46% for the first, 88% for the second.

Compared with Cn1cnc(S(=O)(=O)N(Cc2ccc(Cl)c(Cl)c2)c2ccc(C(=O)N3CCCCC3)cc2)c1 [Example 96, 1-Methyl-1H-imidazole-4-sulfonic acid (3,4-dichloro-benzyl)-[4-(piperidine-1-carbonyl)-phenyl]-amide], Cn1cnc(S(=O)(=O)N(Cc2ccc(F)c(Cl)c2)c2ccc(C(=O)N3CCCCC3)cc2)c1 [Example 97, 1-Methyl-1H-imidazole-4-sulfonic acid (3-chloro-4-fluoro-benzyl)-[4-(piperidine-1-carbonyl)-phenyl]-amide] is higher in inhibition at 1 µM: 48% for the first, 61% for the second.
